The conditions of data set [1]: cited from earlier work.
The conditions of data set [2]: rat, in vivo.
Data set [3] in a line: in vivo. Conditions: male, rat, po, 50 mg/kg, plasma Raloxifene.
The nature of data set [4]: in vivo. Conditions: rat. The method, then: Quantification was performed using the selective MRM mode on a short LC column using a fast gradient.
Blood samples were collected at time 0, 30 min and 1, 3, 6, 24, 30 and 48 hrs. All plasma samples were collected after centrifugation and frozen at −80° C. Plasma was transferred on dry ice to the Platform of Biopharmacy and was kept at −80° C. until extraction and LC/MS/MS analysis (Table 1).
The plasma tubes were thawed on ice. Plasma samples were vortex mixed and 20 μL were pipetted into Eppendorf tubes. Proteins were precipitated by the addition of 40 μL acetonitrile. The tubes were vortex mixed and centrifuged for 4.5 min at 13,000 rpm. 20 μL of supernatant was transferred into a HPLC 96-well plate, and mixed with two volumes of water containing 5 mM ammonium acetate. The calibration curve was prepared in blank SD rat plasma, by serial dilution from 10 μM to […] Standard plasma samples were treated as described above.
Chromatography was performed on a Phenomenex Luna C8(2) 30×2 mm (5 μm) using gradient elution at 0.7 mL/min. The injection volume was 4 μL. The total acquisition time was 4.5 min. Samples were analyzed in selective MRM mode using LC-MS/MS. Peak area ratios for calibration curves and quantification of samples were calculated using Analyst software version 1.6.2. Calibration curves were plotted using the peak area ratios analyte/internal standard versus nominal analyte concentration, using a quadratic weighted 1/x regression.

SMILES strings stand for the structures. Read-outs that look alike come from different tables or passages of the source.

By Cmax is commonly meant the maximum level reached in the sampled fluid or tissue. The term Tmax denotes the time at which the peak concentration occurs. In the case of `O=C(c1ccc(OCCN2CCCCC2)cc1)c1c(-c2ccc(O)cc2)sc2cc(O)ccc12` [Raloxifene], in data set [1], the “water solubility (in words)” value is recorded as “very poor water solubility”. In addition, the “drug toxicity after combination with HA” value in data set [2] is on record as “no detectable augmentation of the drug toxicity”. In data set [2] (po), the “bioavailability after combination with HA” value is reported as “increased”. The compound further came in with a Cmax in data set [3] (SD (Sprague-Dawley), Cmax) of 190 nM. Besides, the results for the Tmax in data set [3] (SD (Sprague-Dawley)) and in data set [3] (SD) were 4.5 h and 3 h, respectively.
`N#Cc1ccc(C(c2ccc(C#N)cc2)n2cncn2)cc1` [Letrozole] displayed a peak concentration (Cmax) in data set [4] (male, SD (Sprague-Dawley), po, 5 mg/kg, Cmax, plasma Letrozole) of 4240 nM. The Tmax in data set [4] (male, SD (Sprague-Dawley), po, 5 mg/kg, plasma Letrozole) turned out to be 4.5 h; in data set [4] (male, SD, po, 5 mg/kg, plasma Letrozole), 6 h. The “drug toxicity after combination with HA” value in data set [4] is reported as “no detectable augmentation of the drug toxicity”. Besides, in data set [4] (po), the “bioavailability after combination with HA” value is given as “increased”. In addition, the “water solubility (in words)” value in data set [1] is recorded as “very poor water solubility”.
`CCc1c2c(nc3ccc(OC(=O)N4CCC(N5CCCCC5)CC4)cc13)-c1cc3c(c(=O)n1C2)COC(=O)[C@]3(O)CC` [Irinotecan]: the “water solubility (in words)” value in data set [1] is listed as “good water solubility”.

The record behind these values is patent US20160346398A1, “CROSS-LINKED HYALURONIC ACID FOR DRUG DELIVERY AND PHARMACEUTICAL PREPARATION USING SAME” (ALURON BIOPHARMA INC., priority 2015, published 2016).
